Data on ten compounds can be found in ChEMBL document CHEMBL2429778, “Hydroxyclerodanes from Salvia shannoni” (J Nat Prod, 2013).

The subject of one assay is Giardia intestinalis. The assay is described as follows: Antiprotozoal activity against clinical isolates of Giardia lamblia IMSS:8901:1. It is filed as functional, organism-based. Particulars: Giardia duodenalis.
The test system of a further assay is Entamoeba histolytica. Kind of assay: Antiprotozoal activity against clinical isolates of Entamoeba histolytica HM-1:IMSS. It is filed as functional, organism-based.
The test system of the next assay is SK-LU-1. The assay is described as follows: Cytotoxicity against human SKLU1 cells after 48 hrs by SRB method. It is filed as functional, cell-based. Particulars: SK-LU-1, 48 h. For orientation: The SRB assay estimates cell density from bound dye.
For a further assay, the system named is Mus musculus. The assay is described as follows: Antiinflammatory activity against TPA-induced CD-1 mouse ear edema model assessed as swelling per ear after 4 hrs relative to control. It is filed as functional, organism-based.
Another assay relates to PC-3. The assay is described as follows: Cytotoxicity against human PC3 cells after 48 hrs by SRB method. It is filed as functional, cell-based. The conditions noted are these: PC-3, 48 h.
The test system of the next assay is K562. Kind of assay: Cytotoxicity against human K562 cells after 48 hrs by SRB method. The conditions noted are these: K562, 48 h. The assay is classed as functional, cell-based.
The next assay has as its system U-251. The assay is described as follows: Cytotoxicity against human U251 cells after 48 hrs by SRB method. Particulars: U-251, 48 h. It is filed as functional, cell-based.
Another assay deals with HCT-15. Kind of assay: Cytotoxicity against human HCT15 cells after 48 hrs by SRB method. It is filed as functional, cell-based. Particulars: HCT-15, 48 h.
Another assay concerns MCF7. The assay is described as follows: Cytotoxicity against human MCF7 cells after 48 hrs by SRB method. It is filed as functional, cell-based. The conditions noted are these: MCF7, 48 h.

Structures are written as SMILES. Values after ≈ are worked out from the molar mass of the structure shown.

With `C[C@]12C[C@H](c3ccoc3)OC(=O)[C@H]1CC[C@@]13COC(=O)[C@H]1C[C@@H]1O[C@@H]1[C@]32O`, the IC50 is 63.3 µg/mL (≈ 169 µM) with Giardia intestinalis; 56.8 µg/mL (≈ 152 µM) in the assay with Entamoeba histolytica; above 50 µM in the assay with SK-LU-1; above 1 µmol with Mus musculus; above 50 µM with PC-3; above 50 µM with K562. In addition, the IC50 with U-251, with HCT-15 and with MCF7 was above 50 µM each time.

As to `C[C@]12C[C@H](c3ccoc3)OC(=O)[C@@]1(O)CC[C@@]13COC(=O)[C@H]1CC=C[C@]32O`, the IC50 came to 85.8 µg/mL (≈ 229 µM) in the assay on Giardia intestinalis and 79.7 µg/mL (≈ 213 µM) with Entamoeba histolytica.

Turning to `C[C@]12C[C@H](c3ccoc3)OC(=O)[C@H]1CC[C@@]13COC(=O)[C@H]1CC=C[C@]32O`, the IC50 was 94.8 µg/mL (≈ 265 µM) with Giardia intestinalis; 84.7 µg/mL (≈ 236 µM) with Entamoeba histolytica; above 50 µM in the assay with SK-LU-1; above 1 µmol with Mus musculus; above 50 µM with PC-3; above 50 µM in the assay with K562. For the same compound, the IC50 with U-251, in the assay with HCT-15 and with MCF7 was above 50 µM throughout.

In the case of `C[C@]12C[C@H](c3ccoc3)OC(=O)[C@@]1(O)CC[C@@]13COC(=O)[C@H]1CC=C[C@H]32`, the IC50 in the assay on Giardia intestinalis is 73.1 µg/mL (≈ 204 µM); with Entamoeba histolytica, 63.3 µg/mL (≈ 177 µM); in the assay with SK-LU-1, above 50 µM; with Mus musculus, above 1 µmol; in the assay with PC-3, above 50 µM; in the assay with K562, above 50 µM. Also, the IC50 in the assay on U-251, with HCT-15 and in the assay with MCF7 was above 50 µM in each case.

For the compound `C[C@]12C[C@H](c3ccoc3)OC(=O)[C@@]1(O)CC[C@@]13COC(=O)[C@]1(O)CC=C[C@]23O`, the IC50 in the assay on Giardia intestinalis was 82.1 µg/mL (≈ 210 µM); in the assay on Entamoeba histolytica it was 76.3 µg/mL (≈ 195 µM); in the assay on SK-LU-1, above 50 µM; in the assay with Mus musculus it was above 1 µmol; in the assay with PC-3 it was above 50 µM; in the assay on K562, above 50 µM. The IC50 in the assay with U-251, in the assay on HCT-15 and in the assay with MCF7 was above 50 µM each time.

Turning to `C[C@]12C[C@H](c3ccoc3)OC(=O)[C@@]1(O)CC[C@@]13COC(=O)[C@@H]1C=CC[C@@H]32`, the IC50 with Giardia intestinalis is 42.4 µg/mL (≈ 118 µM); with Entamoeba histolytica, 56.5 µg/mL (≈ 158 µM); with SK-LU-1, above 50 µM; in the assay with Mus musculus, above 1 µmol; in the assay on PC-3, above 50 µM; in the assay with K562, above 50 µM. Moreover, the IC50 in the assay with U-251, with HCT-15 and in the assay with MCF7 was above 50 µM throughout.

In the case of `C[C@]12C[C@H](c3ccoc3)OC(=O)[C@H]1CC[C@@]13COC(=O)[C@@H]1C=C[C@@H](O)[C@H]23`, the results for the IC50 with Giardia intestinalis and in the assay with Entamoeba histolytica were 71.7 µg/mL (≈ 200 µM) and 57.4 µg/mL (≈ 160 µM), respectively.

Consider `Oc1cc(O)c2c(c1)O[C@H](c1ccc(O)c(O)c1)[C@@H](O)C2` [CIANIDANOL], for which the IC50 with Giardia intestinalis worked out at 33.9 µg/mL (≈ 117 µM); in the assay on Entamoeba histolytica it was 65.6 µg/mL (≈ 226 µM).

Take `C[C@]12C[C@H](c3ccoc3)OC(=O)[C@@]1(O)CC[C@@]13COC(=O)C1=CC[C@H]1O[C@]132` [TEHUANINE G]: the IC50 stood at 86.4 µg/mL (≈ 232 µM) with Giardia intestinalis and 71.2 µg/mL (≈ 191 µM) in the assay on Entamoeba histolytica.

For the compound `NCCc1ccc(O)cc1` [TYRAMINE], the values for the IC50 in the assay with Giardia intestinalis and in the assay on Entamoeba histolytica were 68.9 µg/mL (≈ 502 µM) and 54.2 µg/mL (≈ 395 µM), respectively.
